# Ends that are not written are not given here.
# Assays:
# HLA-DRB1*09:01 = HLA-DRB1*09:01 (Homo sapiens, UniProt P01903+P01911, A100R/A103E/D57H/D86V/F55Y/F60I/F76Y/I96F/K127E/L162R/M171V/P40D/Q125H/Q99R/R33Q/R42F/S133A/S66N/T210M/V115G/W38K/Y107V/Y59G/Y89S); experiment: Competitive inhibition HLA II binding assay; conditions: competition with radiolabeled probe peptide, purified HLA II, 0.3 nM–30 µM, 2-day incubation; mean of three or more independent assays
# HLA-DRB1*04:04 = HLA-DRB1*04:04 (Homo sapiens, UniProt P01903+P01911, A100R/A169T/F76Y/I96L/K127E/L162R/M171V/N62H/P40V/Q125Y/R42H/S133A/S149N/S66Y/V209L/W38E); experiment: Competitive inhibition HLA II binding assay; conditions: competition with radiolabeled probe peptide, purified HLA II, 0.3 nM–30 µM, 2-day incubation; mean of three or more independent assays
# HLA-DRB1*07:01 = HLA-DRB1*07:01 (Homo sapiens, UniProt P01903+P01911, A100R/A102G/A103Q/D57E/D86V/E43K/F76Y/K127E/L162R/M171V/P40G/Q125H/Q99D/R33Q/R42Y/R54Q/S133A/S66F/T210M/V115G/Y107V/Y59L/Y89S); experiment: Competitive inhibition HLA II binding assay; conditions: competition with radiolabeled probe peptide, purified HLA II, 0.3 nM–30 µM, 2-day incubation; mean of three or more independent assays
# HLA-DRB1*13:02 = HLA-DRB1*13:02 (Homo sapiens, UniProt P01903+P01911, A100E/A169T/K41T/L162R/M171V/P40S/Q125H/Q178H/Q39Y/Q99D/R42S/S66N/T262R/V115G/W38E/Y61H); experiment: Competitive inhibition HLA II binding assay; conditions: competition with radiolabeled probe peptide, purified HLA II, 0.3 nM–30 µM, 2-day incubation; mean of three or more independent assays
# HLA-DRB1*08:02 = HLA-DRB1*08:02 (Homo sapiens, UniProt P01903+P01911, A100R/A103L/A169T/F76Y/H45Y/I96F/K41T/L162R/M171V/P40S/Q125H/Q178H/Q39Y/Q99D/R218S/R42G/S66Y/V115G/W38E); experiment: Competitive inhibition HLA II binding assay; conditions: competition with radiolabeled probe peptide, purified HLA II, 0.3 nM–30 µM, 2-day incubation; mean of three or more independent assays
# HLA-DRB1*11:04 = HLA-DRB1*11:04 (Homo sapiens, UniProt P01903+P01911, A100R/A169T/A87E/I96F/K41T/L162R/M171V/P40S/Q125H/Q178H/Q39Y/Q99D/R42S/S66Y/T262R/W38E); experiment: Competitive inhibition HLA II binding assay; conditions: competition with radiolabeled probe peptide, purified HLA II, 0.3 nM–30 µM, 2-day incubation; mean of three or more independent assays
# HLA-DRB1*11:01 = HLA-DRB1*11:01 (Homo sapiens, UniProt P01903+P01911, A100R/A169T/A87E/I96F/K41T/L162R/M171V/P40S/Q125H/Q178H/Q39Y/Q99D/R42S/S66Y/T262R/V115G/W38E); experiment: Competitive inhibition HLA II binding assay; conditions: competition with radiolabeled probe peptide, purified HLA II, 0.3 nM–30 µM, 2-day incubation; mean of three or more independent assays
# HLA-DRB1*03:01 = HLA-DRB1*03:01 (Homo sapiens, UniProt P01903+P01911, A100K/A102G/A103R/A169T/F55Y/I96L/K41T/L162R/M171V/P40S/Q125H/Q178H/Q39Y/R42S/S66N/T106N/T262R/W38E/Y61H); experiment: Competitive inhibition HLA II binding assay; conditions: competition with radiolabeled probe peptide, purified HLA II, 0.3 nM–30 µM, 2-day incubation; mean of three or more independent assays
# [1] = system: PBMCs from three HLA II-typed donors; experiment: IFNγ-ELISPOT assay; format: cell-based, human; conditions: 10 μM peptide, 1 × 10^5 PBMCs, 24 h, triplicate; positive if >60 SFC/10^6 PBMCs after background subtraction
# Experimental: Peptide-specific IFNγ production by PBMCs from HLA II-typed donors was detected by standard IFNγ ELISPOT assays. Briefly, 96-well PVDF plates (Millipore, Darmstadt, Germany) were coated with anti-IFNγ (1-D1K mAb, Mabtech, Stockholm, Sweden) and 1 × 10^5 PBMCs were pleated with RPMI 1640 (Gibco, Waltham, MA, USA), supplemented with 10% of fetal bovine serum (Gibco, Waltham, MA, USA), 100 µg/mL streptomycin, 100 U/mL penicillin, and 2 mM L-glutamine (Lonza, Basel, Switzerland). Individual RV peptides were added at 10 μM. Plates were incubated at 37 °C and 5% CO2 and, after 24 h, were processed according to the manufacturer’s instructions. PBMCs incubated with 10 μg/mL phytohemagglutinin (PHA) or without any stimuli were used as positive and background controls, respectively. The assay was run in triplicate for each individual peptide. The number of IFNγ-secreting cells (spot forming cells (SFCs)) was determined with an ELISPOT reader (ImmunoSpot 5.0, CTL Analyzers, Shaker Heights, OH, USA).
Compound,IC50 (HLA-DRB1*09:01),IC50 (HLA-DRB1*04:04),IC50 (HLA-DRB1*07:01),IC50 (HLA-DRB1*13:02),IC50 (HLA-DRB1*08:02),IC50 (HLA-DRB1*11:04),IC50 (HLA-DRB1*11:01),IC50 (HLA-DRB1*03:01),IFNγ recall response in ELISPOT [1]
CC[C@H](C)[C@H](NC(=O)CNC(=O)[C@H](CCCCN)NC(=O)[C@H](CCC(=O)O)NC(=O)[C@H](CC(C)C)NC(=O)[C@@H](NC(=O)[C@H](CC(=O)O)NC(=O)[C@H](CCCCN)NC(=O)[C@@H](N)C(C)C)C(C)C)C(=O)N1CCC[C@H]1C(=O)N[C@H](C(=O)N[C@@H](CC(C)C)C(=O)N[C@@H](CCC(N)=O)C(=O)N[C@@H](CO)C(=O)N1CCC[C@H]1C(=O)N[C@H](C(=O)N[C@H](C(=O)N[C@@H](CCC(=O)O)C(=O)O)C(C)C)[C@@H](C)O)[C@@H](C)O [RVA57–74],9.54 µM,4.1 µM,,,,,,,
CC[C@H](C)[C@H](NC(=O)[C@@H](NC(=O)[C@H](CO)NC(=O)[C@@H](N)CC(=O)O)[C@@H](C)O)C(=O)N[C@H](C(=O)N[C@@H](CO)C(=O)N[C@@H](CCC(N)=O)C(=O)N[C@@H](CC(=O)O)C(=O)N[C@H](C(=O)N[C@@H](C)C(=O)N[C@@H](CC(N)=O)C(=O)N[C@@H](C)C(=O)N[C@H](C(=O)N[C@H](C(=O)NCC(=O)N[C@@H](Cc1ccc(O)cc1)C(=O)NCC(=O)N[C@H](C(=O)O)C(C)C)C(C)C)C(C)C)C(C)C)[C@@H](C)O [RVA89–106],1.2 µM,0.019 µM,0.865 µM,6.65 µM,5.17 µM,5.82 µM,,,
CC(C)C[C@H](NC(=O)[C@H](Cc1ccc(O)cc1)NC(=O)[C@H](Cc1c[nH]cn1)NC(=O)[C@@H]1CCCN1C(=O)[C@H](Cc1c[nH]c2ccccc12)NC(=O)[C@@H](NC(=O)CNC(=O)[C@H](Cc1ccc(O)cc1)NC(=O)CNC(=O)[C@@H](NC(=O)[C@@H](NC(=O)[C@H](C)NC(=O)[C@H](CC(N)=O)NC(=O)[C@H](C)NC(=O)[C@@H](N)C(C)C)C(C)C)C(C)C)C(C)C)C(=O)N[C@H](C(=O)N1CCC[C@H]1C(=O)N[C@@H](CCC(=O)O)C(=O)O)[C@@H](C)O [RVA97–114],11.5 µM,5.58 µM,1.3 µM,11.6 µM,0.453 µM,19.7 µM,1.1 µM,,
DLPYVTYLKDELR [RVC1835–1847],,0.773 µM,,,2.6 µM,,,,
GLEPLDLNTSAGFPYV [RVC1791–1806],,1.1 µM,1.2 µM,0.062 µM,,,,8.4 µM,
INLRTNNSSTIVVPYIN [RVC258–274],0.84 µM,3.43 µM,0.411 µM,0.04 µM,,,,,
KEKFRDIRRFIP [RVC1582–1592],2.73 µM,8.68 µM,13 µM,,0.044 µM,0.101 µM,0.033 µM,,
"YEIQESEYYPKHIQY [RVC945–959, RV C 2A peptide, position 945–959]",,,,,,,,,able to stimulate IFNγ production by T cells in at least one donor
"YGDDVIFSY [RVA2029–2037, reference compound]",,,,,,,,,not immunogenic in IFNγ ELISPOT assays
